Test results published in ChEMBL document CHEMBL5376002, “A Hybrid Antimicrobial Peptide Targeting Staphylococcus aureus with a Dual Function of Inhibiting Quorum Sensing Signaling and an Antibacterial Effect” (J Med Chem, 2023).
≈ marks a conversion by molar mass, not a printed value. Calls of active or inactive are those of the source. The calls are words filed in the database; no cut-off is given here. Numbered stars: 1 amine (or outer) side, 2 acyl side, 3 side chain; on linkers, the order of the positions; unused ones are H or OH. Bridge positions count the residues as written; N and C are the ends. Square brackets hold non-standard residues; d marks the D form. Peptide text beside a SMILES is read from it. I, II: the chains in the order shown. X1 = O=C1CC([*:2])C(=O)N1CCCCCC(=O)[*:1]; Dab = NCC[C@H](N)C(=O)O

Legend:
Homo sapiens [1] = species: Homo sapiens; test: Binding affinity to AgrC-I extra-loop-I (unknown origin) assessed as change in entropy incubated for 10 mins by isothermal titration calorimetry analysis
Homo sapiens [2] = species: Homo sapiens; test: Binding affinity to AgrC-I extra-loop-II (unknown origin) assessed as change in entropy incubated for 10 mins by isothermal titration calorimetry analysis
[3] = Inhibition of quorum sensing system in Staphylococcus aureus ATCC 6538p assessed as downregulation of RNAIII expression level at 0.78 uM incubated for 24 hrs by qRT-PCR analysis
Streptococcus mutans [4] = test: Antibacterial activity against Streptococcus mutans ATCC 25175 assessed as inhibition of bacterial growth incubated for 18 to 24 hrs; format: functional; settings: time 18-24 hrs
Staphylococcus aureus [5] = test: Antibacterial activity against Staphylococcus aureus ATCC 12600 assessed as inhibition of bacterial growth incubated for 18 to 24 hrs; format: functional; settings: time 18-24 hrs
[6] = Binding affinity to AgrC-I extra-loop-II (unknown origin) assessed as change in enthalpy incubated for 10 mins by isothermal titration calorimetry analysis
Erythrocyte = test: Hemolytic activity in rat RBC assessed as hemolysis measured after 20 hrs; format: toxicity, cell-based
Staphylococcus aureus [7] = test: Antivirulence activity against Staphylococcus aureus assessed as downregulation of RNAIII expression level at 1 to 100 uM incubated for 24 hrs by qRT-PCR analysis; format: functional, organism-based; settings: dose 1-100 µM
Streptococcus pneumoniae [8] = test: Antibacterial activity against Streptococcus pneumoniae assessed as reduction in bacterial growth at 6.25 uM measured at 20 mins by time kill assay; format: functional, organism-based
Homo sapiens [9] = species: Homo sapiens; test: Binding affinity to AgrC-I extra-loop-II (unknown origin) assessed as gibbs free energy change incubated for 10 mins by isothermal titration calorimetry analysis
[10] = Inhibition of quorum sensing system in Staphylococcus saprophyticus ATCC BAA-750 assessed as downregulation of RNAIII expression level at 0.78 uM incubated for 24 hrs by qRT-PCR analysis
RAW264.7 = test: Cytotoxicity against mouse RAW264.7 cells assessed as cell viability incubated for 48 hrs by MTT assay; format: functional
[11] = Binding affinity to AgrC-I extra-loop-III (unknown origin) assessed as dissociation constant incubated for 10 mins by isothermal titration calorimetry analysis
Streptococcus mutans [12] = test: Bactericidal activity against Streptococcus mutans ATCC 25175 assessed as inhibition of bacterial growth incubated for 18 to 24 hrs; format: functional; settings: time 18-24 hrs
[13] = Binding affinity to AgrC-I extra-loop-I (unknown origin) assessed as change in enthalpy incubated for 10 mins by isothermal titration calorimetry analysis
[14] = test system: Staphylococcus saprophyticus; test: Antibacterial activity against Staphylococcus saprophyticus ATCC BAA-750 assessed as inhibition of bacterial growth incubated for 18 to 24 hrs; format: functional; settings: time 18-24 hrs
[15] = Binding affinity to AgrC-I extra-loop-II (unknown origin) assessed as dissociation constant incubated for 10 mins by isothermal titration calorimetry analysis
[16] = Inhibition of quorum sensing system in Staphylococcus epidermidis ATCC 12228 assessed as downregulation of RNAIII expression level at 0.78 uM incubated for 24 hrs by qRT-PCR analysis
Homo sapiens [17] = species: Homo sapiens; test: Binding affinity to AgrC-I extra-loop-III (unknown origin) assessed as gibbs free energy change incubated for 10 mins by isothermal titration calorimetry analysis
Streptococcus mutans [18] = test: Bactericidal activity against Streptococcus mutans UA159 assessed as inhibition of bacterial growth incubated for 18 to 24 hrs; format: functional; settings: time 18-24 hrs
Streptococcus pneumoniae [19] = test: Bactericidal activity against Streptococcus pneumoniae ATCC 49619 assessed as inhibition of bacterial growth incubated for 18 to 24 hrs; format: functional; settings: time 18-24 hrs
Streptococcus pneumoniae [20] = test: Antibacterial activity against Streptococcus pneumoniae ATCC 49619 assessed as inhibition of bacterial growth incubated for 18 to 24 hrs; format: functional; settings: time 18-24 hrs
[21] = test system: Staphylococcus saprophyticus; test: Antibacterial activity against Staphylococcus saprophyticus assessed as reduction in bacterial growth at 6.25 uM measured at 20 mins by time kill assay; format: functional, organism-based
Homo sapiens [22] = species: Homo sapiens; test: Binding affinity to AgrC-I extra-loop-I (unknown origin) assessed as gibbs free energy change incubated for 10 mins by isothermal titration calorimetry analysis
Staphylococcus aureus [23] = test: Bactericidal activity against Staphylococcus aureus ATCC 6538p assessed as inhibition of bacterial growth incubated for 18 to 24 hrs; format: functional; settings: time 18-24 hrs
[24] = Toxicity in Kunming mouse infected with Staphylococcus aureus ATCC 6538p assessed as body weight gain 15 to 45 mg/kg, ip pre-infected with bacteria for 1 hr followed by compound administration and measured after 5 days; format: organism-based; settings: in vivo, 120 h, dose 15-45 mg/kg, time 5 day
[25] = Binding affinity to AgrC-I extra-loop-I (unknown origin) assessed as dissociation constant incubated for 10 mins by isothermal titration calorimetry analysis
Cell membrane = test: Induction of cell membrane damage in Staphylococcus aureus ATCC 6538p assessed as increase in nucleic acid leakage measured up to 30 mins by UV-spectrophotometer analysis; format: subcellular
Staphylococcus aureus [26] = test: Bactericidal activity against Staphylococcus aureus ATCC 12600 assessed as inhibition of bacterial growth incubated for 18 to 24 hrs; format: functional; settings: time 18-24 hrs
Staphylococcus aureus [27] = test: Antibacterial activity against Staphylococcus aureus ATCC 43300 assessed as inhibition of bacterial growth incubated for 18 to 24 hrs; format: functional; settings: time 18-24 hrs
[28] = Toxicity in Kunming mouse infected with Staphylococcus aureus ATCC 6538p assessed as weight loss 15 to 45 mg/kg, ip pre-infected with bacteria for 1 hr followed by compound administration and measured after 3 days; format: organism-based; settings: in vivo, 72 h, dose 15-45 mg/kg, time 3 day
[29] = test system: Staphylococcus saprophyticus; test: Bactericidal activity against Staphylococcus saprophyticus ATCC BAA-750 assessed as inhibition of bacterial growth incubated for 18 to 24 hrs; format: functional; settings: time 18-24 hrs
Streptococcus mutans [30] = test: Antibacterial activity against Streptococcus mutans UA159 assessed as inhibition of bacterial growth incubated for 18 to 24 hrs; format: functional; settings: time 18-24 hrs
[31] = test system: Staphylococcus epidermidis; test: Antibacterial activity against Staphylococcus epidermidis assessed as reduction in bacterial growth at 6.25 uM measured at 20 mins by time kill assay; format: functional, organism-based
Staphylococcus aureus [32] = test: Inhibition of biofilm formation in Staphylococcus aureus at 0.78 to 1.56 uM incubated for 24 hrs by crystal violet staining based analysis; format: functional, organism-based; settings: dose 0.78-1.56 µM
Escherichia coli [33] = test: Bactericidal activity against Escherichia coli ATCC 25922 assessed as inhibition of bacterial growth incubated for 18 to 24 hrs; format: functional; settings: time 18-24 hrs
[34] = Toxicity in Kunming mouse infected with Staphylococcus aureus ATCC 6538p assessed as animal survival rate 45 mg/kg, ip pre-infected with bacteria for 1 hr followed by compound administration and measured after 7 days; format: organism-based; settings: in vivo, 168 h, time 7 day
Homo sapiens [35] = species: Homo sapiens; test: Binding affinity to AgrC-I extra-loop-III (unknown origin) assessed as change in entropy incubated for 10 mins by isothermal titration calorimetry analysis
Staphylococcus aureus [36] = test: Inhibition of biofilm formation in Staphylococcus aureus at 0.39 uM incubated for 24 hrs by crystal violet staining based analysis; format: functional, organism-based
Staphylococcus aureus [37] = test: Antibacterial activity against Staphylococcus aureus ATCC 6538p assessed as inhibition of bacterial growth incubated for 18 to 24 hrs; format: functional; settings: time 18-24 hrs
Escherichia coli [38] = test: Antibacterial activity against Escherichia coli assessed as reduction in bacterial growth at 6.25 uM measured at 20 mins by time kill assay; format: functional, organism-based

Q: For CC[C@H](C)[C@H](NC(=O)CNC(=O)CNC(=O)[C@@H](N)CSC1CC(=O)N(CCCCCC(=O)NCC(=O)N[C@H](C(=O)N[C@@H](CCCCN)C(=O)N[C@@H](CC(N)=O)C(=O)N[C@@H](CC(C)C)C(=O)N[C@@H](Cc2c[nH]c3ccccc23)C(=O)N[C@@H](CCCCN)C(=O)N[C@@H](CCCCN)C(=O)N[C@@H](CCSC)C(=O)N[C@H](C(=O)N[C@@H](CCCCN)C(=O)N[C@@H](CC(C)C)C(=O)N[C@@H](Cc2c[nH]c3ccccc23)C(=O)N[C@@H](Cc2ccc(O)cc2)C(=O)O)[C@@H](C)CC)[C@@H](C)CC)C1=O)C(=O)N[C@@H](CC(N)=O)C(=O)N[C@H]1CCNC(=O)[C@H](CC(C)C)NC(=O)[C@H](CC(C)C)NC(=O)[C@H](Cc2ccccc2)NC(=O)[C@H](C)NC1=O (stereo partly specified) (I: GIKNLWKKMIKLWY-OH / II: H-CGGIN[Dab]AFLL; linker I:N-II:1 via X1; lactam II:6-II:C), which -TdeltaS (Homo sapiens [1]) is on record?
A: The -TdeltaS was -11.7 kcal/mol.

Q: And the -TdeltaS (Homo sapiens [2])?
A: The -TdeltaS was 16.4 kcal/mol.

Q: What about the inhibition [3] of the same molecule?
A: The inhibition was “Active”.

Q: And the MIC (Streptococcus mutans [4])?
A: Its MIC is 3.13 µM (≈ 9.4 µg/mL).

Q: What about the MIC (Staphylococcus aureus [5]) of the same molecule?
A: The MIC was 3.13 µM (≈ 9.4 µg/mL).

Q: What about the deltaH [6] of the same molecule?
A: Its deltaH is “inactive”.

Q: What about the Activity (Erythrocyte) of the same molecule?
A: Its Activity is “Toxic”.

Q: What about the Activity (Staphylococcus aureus [7]) of the same molecule?
A: The Activity was “Active”.

Q: What about the Activity (Streptococcus pneumoniae [8]) of the same molecule?
A: The Activity was “inactive”.

Q: And the deltaG (Homo sapiens [9])?
A: Its deltaG is -16.4 kcal/mol.

Q: And the inhibition [10]?
A: The inhibition was “inactive”.

Q: What about the CC50 (RAW264.7) of the same molecule?
A: The CC50 was 71100 nM.

Q: And the Kd [11]?
A: The Kd was 0.001 nM.

Q: And the MBC (Streptococcus mutans [12])?
A: Its MBC is 3.13 µM (≈ 9.4 µg/mL).

Q: And the deltaH [13]?
A: The deltaH was -4.7 kcal/mol.

Q: What about the MIC [14] of the same molecule?
A: Its MIC is 3.13 µM (≈ 9.4 µg/mL).

Q: What about the Kd [15] of the same molecule?
A: The Kd was 0.001 nM.

Q: And the inhibition [16]?
A: The inhibition was “inactive”.

Q: And the deltaG (Homo sapiens [17])?
A: The deltaG was -16.4 kcal/mol.

Q: And the MBC (Streptococcus mutans [18])?
A: Its MBC is 6.25 µM (≈ 18.8 µg/mL).

Q: And the MBC (Streptococcus pneumoniae [19])?
A: The MBC was 6.25 µM (≈ 18.8 µg/mL).

Q: What about the MIC (Streptococcus pneumoniae [20]) of the same molecule?
A: The MIC was 6.25 µM (≈ 18.8 µg/mL).

Q: What about the Activity [21] of the same molecule?
A: Its Activity is “inactive”.

Q: What about the deltaG (Homo sapiens [22]) of the same molecule?
A: Its deltaG is -16.4 kcal/mol.

Q: What about the MBC (Staphylococcus aureus [23]) of the same molecule?
A: Its MBC is 3.13 µM (≈ 9.4 µg/mL).

Q: What about the Activity [24] of the same molecule?
A: The Activity was “Non-Toxic”.

Q: And the Kd [25]?
A: The Kd was 0.001 nM.

Q: What about the Activity (Cell membrane) of the same molecule?
A: Its Activity is “Active”.

Q: And the MBC (Staphylococcus aureus [26])?
A: The MBC was 3.13 µM (≈ 9.4 µg/mL).

Q: And the MIC (Staphylococcus aureus [27])?
A: Its MIC is 6.25 µM (≈ 18.8 µg/mL).

Q: And the Activity [28]?
A: Its Activity is “Non-Toxic”.

Q: What about the MBC [29] of the same molecule?
A: The MBC was 3.13 µM (≈ 9.4 µg/mL).

Q: And the MIC (Streptococcus mutans [30])?
A: The MIC was 6.25 µM (≈ 18.8 µg/mL).

Q: What about the Activity [31] of the same molecule?
A: The Activity was “inactive”.

Q: And the inhibition (Staphylococcus aureus [32])?
A: Its inhibition is “Active”.

Q: What about the MBC (Escherichia coli [33]) of the same molecule?
A: The MBC was 12.5 µM (≈ 37.5 µg/mL).

Q: What about the Activity [34] of the same molecule?
A: The Activity was 50%.

Q: What about the -TdeltaS (Homo sapiens [35]) of the same molecule?
A: The -TdeltaS was -16.3 kcal/mol.

Q: What about the inhibition (Staphylococcus aureus [36]) of the same molecule?
A: The inhibition was “Active”.

Q: And the MIC (Staphylococcus aureus [37])?
A: The MIC was 3.13 µM (≈ 9.4 µg/mL).

Q: What about the Activity (Escherichia coli [38]) of the same molecule?
A: Its Activity is “inactive”.
